Test results reported in patent publication US9381193B2, “Contraceptive methods and compositions” (WASHINGTON UNIVERSITY, priority 2011, dated 2016).

Tests used:
[1] = Artificially induced deciduoma in ovariectomized mice; format: in vivo, mouse; settings: female, FVB/NJ, mouse, serum, subcutaneous, 2 mg/100 g of body weight; measured on day +5; DHEA-treated group; read-out: Serum DHEA levels
Description: (§1) This induced deciduoma model allowed the study of the effect of increased DHEA on implantation independently of embryo development and ovarian function. Female mice 6-8 weeks of age were ovariectomized and rested for 2 weeks. […] At day 2 before induction, the experimental mice also began receiving DHEA at 2 mg/100 g of body weight. The control mice received no DHEA. At day 0, one uterine horn in each animal was subjected to a physical stimulus, 100 μL sesame seed oil injection, to induce a deciduoma. The second horn was left as the unstimulated internal control for each mouse. Day 0 in this case is equivalent to the day of embryo implantation in a physiological mouse pregnancy, which is 4 days post coitus. Five days after the oil injection, uterine horns were dissected out. First the gross anatomies of the uteri were assessed. Representative tissues from two mice in each treatment group are shown (FIG. 7B). […] Protein was isolated from all uterine horns in order to measure the expression of a well-established decidualization protein marker, Bmp2. […] Bmp2 expression was almost undetectable in the unstimulated uterine horns. […] In the same line of experiments, the serum hormone levels were also measured to confirm that findings were strictly the result of increased levels of DHEA.
(§2) Decidualization in vivo under chronically elevated levels of DHEA was also tested. The ovariectomy mouse model described above was used with the following changes: DHEA was administered orally (0.6% supplementation in regular chow diet) starting on the day of ovariectomy. The mice were on the diet for 2 weeks prior to the beginning of the hormone regiments described in FIG. 7A. In FIG. 8A, representative uterine horns are shown from control mice (receiving regular chow) and the treatment mice on 0.6% DHEA diet. […] A quantitative analysis of the decidual reaction in shown in FIG. 8B, where the mass of the uterine horns is shown. Lastly, it should be noted that ovariectomised mice, similar to post-menopausal women, tend to have increased body fat percentage.
(§3) To generate deciduomas 7-8 wk-old female FVB/NJ mice were used and treated as described previously. A time line of the hormone administrations is presented in FIG. 7a, adapted from Herington et al. Briefly, mice were ovariectomized and allowed 2 weeks for recovery. They were then injected with 100 ng 17b-estradiol (E2) (Sigma) for three days, rested two days, and then injected with 10 ng E2/1 μg Progesterone (P4, Sigma) for three days. […] Immediately following the last of the above sensitization injections, the right uterine horn received an intra-luminal injection of 100 μL of sunflower seed oil. Mice continued to receive 1 μg P4 subcutaneously for up to 4 days. Mice receiving the DHEA treatment received […] starting on the day the E2/P4 injections were begun and continued for the 7 days following, until mice were sacrificed. On the day following the last injection, serum samples were collected, the mice were sacrificed and uterine horns dissected out. Serum DHEA, E2 and P4 levels were analyzed by ELISA assays (Alpco Immunoassays).

FVB/NJ mice = experiment: as above; format: in vivo, mouse
Description: as §1, §2, §3

blastocysts = experiment: ATP and citrate levels in blastocysts cultured from two-cell embryos with DHEA; format: cell-based, mouse
Description: Mice were superovulated and mated with males of known fertility. Forty-five hours after injection with hCG, the oviducts were removed. Two-cell embryos were collected by flushing the oviducts with human tubal fluid media (HTF) with 0.25% BSA. Embryos were cultured in HTF with BSA and either DMSO, 10 μM DHEA or 100 μM DHEA for 72 hours. In vitro cultured blastocysts were transferred to 2.5 days postcoitus (dpc) pseudopregnant ICR females. Resulting embryos and placentas were collected at 14.5 dpc and fixed with Bouin's solution, embedded in paraffin and sectioned.
(§4) Denuded oocytes or cultured blastocysts were frozen on a glass slide with liquid nitrogen and dried overnight at −35° C. under vacuum. Individual oocytes or blastocysts were extracted in nanoliter volume under oil. Assays were designed to measure ATP, citrate and G6PDH by linking with NAD/NADH or NADP/NADPH which are enzymatically amplified in a cycling reaction allowing products to be measured by fluorometry.

murine ESCs = experiment: In vitro decidualization of primary murine ESCs (Prp mRNA); format: cell-based, mouse; settings: 3 days in vitro culture
Description: In order to confirm that this is not a side effect of ESC immortalization with telomerase overexpression in this human cell line, the effect of DHEA on decidualization of primary ESC cultures from mouse and human uteri was also investigated. Murine ESCs were isolated from the gravid uterus at 4 days post coitus and cultured in vitro for 3 days to induce decidualization as described in the Methods. […] The human primary ESCs were isolated from uteri following hysterectomy for benign disease as outlined in the Methods and cultured in decidualization media for 9 days.
For in vitro decidualization of ESCs, female mice were sacrificed at 4dpc. Pregnancy was confirmed by flushing dissected uterine horns and ostia with HBSS and observing for presence of blastocysts. Uteri confirmed for pregnancy were cut into 1 mm^3 pieces and incubated in Dulbecco's modified Eagle's Medium:F12 medium (DMEM:F12) without phenol red supplemented with 2 g/liter Collagenase Type I (Gibco) for 60-90 min at 37° C. Tissues were vortexed every 15 min during incubation. Following incubation, the solution was passed through a 40 μm sieve (BD Falcon) and centrifuged at 1100 rpm for 5 min. […]

G6PDH = target: T1, G6PDH (Mus musculus, UniProt Q00612); experiment: G6PDH enzyme activity in single oocytes of DHEA-fed mice; format: in vivo
T1 construct: Individual oocytes or blastocysts were extracted in nanoliter volume under oil; from tissue; host or cells: denuded germinal vesicle oocytes of mice
Description: COCs were collected following superovulation with PMSG. Ovaries were removed and placed in M2 media (Sigma, St. Louis, Mo., USA). COCs were obtained by rupture of antral follicles with a syringe and needle. To collect denuded germinal vesicle (GV) oocytes, the cumulus cells were removed by gentle pipetting. The oviducts were removed from PMSG- and hCG-primed mice. The ampulla of the oviduct was punctured to release the clutch of ovulated oocytes 24 hr after hCG.
as §4

T1 sequence (Q00612 whole entry): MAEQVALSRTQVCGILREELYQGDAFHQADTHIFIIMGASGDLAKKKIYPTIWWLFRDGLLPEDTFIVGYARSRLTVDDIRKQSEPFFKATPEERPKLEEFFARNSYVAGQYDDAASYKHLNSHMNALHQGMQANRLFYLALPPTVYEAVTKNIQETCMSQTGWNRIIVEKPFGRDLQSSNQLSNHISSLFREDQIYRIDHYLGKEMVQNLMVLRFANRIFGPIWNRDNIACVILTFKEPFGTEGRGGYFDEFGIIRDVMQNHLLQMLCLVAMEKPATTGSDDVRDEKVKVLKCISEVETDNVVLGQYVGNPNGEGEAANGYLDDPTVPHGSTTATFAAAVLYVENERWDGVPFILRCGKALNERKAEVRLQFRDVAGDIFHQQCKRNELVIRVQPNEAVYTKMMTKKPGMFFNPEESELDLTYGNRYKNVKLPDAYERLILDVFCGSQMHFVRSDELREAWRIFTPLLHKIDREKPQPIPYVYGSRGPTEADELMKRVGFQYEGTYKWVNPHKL

C[C@]12CC[C@H](O)CC1=CC[C@@H]1[C@@H]2CC[C@]2(C)C(=O)CC[C@@H]12 [DHEA, dehydroepiandrosterone]
concentration at 5 day (after oil injection on day 0) [1]: 32.6 ng/mL
Deciduoma formation under chronic DHEA (FVB/NJ mice; 0.6% DHEA in chow, oral, from day of ovariectomy): no difference between the stimulated and unstimulated uterine horns
Decrease in Bmp2 protein induction in deciduomas vs control mice (Western blot) (FVB/NJ mice; DHEA 2 mg/100 g of body weight): 3 fold
Decrease in the decidual response by uterine mass vs controls (FVB/NJ mice; DHEA 2 mg/100 g of body weight): ~3 fold
Morphology of uterine cross sections of stimulated horns (FVB/NJ mice; DHEA 2 mg/100 g of body weight): no decidual cells
Gross deciduoma formation along the stimulated uterine horn (FVB/NJ mice; DHEA 2 mg/100 g of body weight from day 2 before induction, 5 days after oil injection): weak, if any, deciduoma formation
Citrate levels of control (blastocysts; 10 μM DHEA): 86%
Citrate levels of control (blastocysts; 100 μM DHEA): 68%
Prp mRNA expression (murine ESCs): decreased upon addition of DHEA in a concentration-dependent manner
G6PDH activity (G6PDH; 0.01% DHEA and 0.1% DHEA groups): decreased
G6PDH activity, of normal (G6PDH; 0.1% DHEA diet): 87%
